The results in this text go back to US12012392B2, “Sulfonamide carboxamide compounds” (Inflazome Limited, priority 2017, dated 2024).

In experiment [1] the target is T1, NLRP3 (Homo sapiens, UniProt Q96P20). The experiment can be described thus: THP-1 cells pyroptosis assay. It is filed as cell-based. Also on record: Seed THP-1 cells (25,000 cells/well) containing 1.0 μg/ml LPS; host or cells: THP-1 cells, LPS-primed, nigericin-stimulated. Particulars: LPS 1 μg/ml, nigericin 5 μM, resazurin read-out. As for the experimental part:
THP-1 cells (ATCC #TIB-202) were grown in RPMI containing L-glutamine (Gibco #11835) supplemented with 1 mM sodium pyruvate (Sigma #S8636) and penicillin (100 units/ml)/streptomycin (0.1 mg/ml) (Sigma #P4333) in 10% Fetal Bovine Serum (FBS) (Sigma #F0804). The cells were routinely passaged and grown to confluency (˜10^6 cells/ml). On the day of the experiment, THP-1 cells were harvested and resuspended into RPMI medium (without FBS). The cells were then counted and viability (>90%) checked by Trypan blue (Sigma #T8154). Appropriate dilutions were made to give a concentration of 625,000 cells/ml. To this diluted cell solution was added LPS (Sigma #L4524) to give a 1 μg/ml Final Assay Concentration (FAC). 40 μl of the final preparation was aliquoted into each well of a 96-well plate. The plate thus prepared was used for compound screening.
The following method step-by-step assay was followed for compound screening. • 1. Seed THP-1 cells (25,000 cells/well) containing 1.0 μg/ml LPS in 40 μl of RPMI medium (without FBS) in 96-well, black walled, clear bottom cell culture plates coated with poly-D-lysine (VWR #734-0317) • 2. Add 5 μl compound (8 points half-log dilution, with 10 μM top dose) or vehicle (DMSO 0.1% FAC) to the appropriate wells • 3. Incubate for 3 hrs at 37° C. and 5% CO2 • 4. Add 5 μl nigericin (Sigma #N7143) (FAC 5 μM) to all wells • 5. Incubate for 1 hr at 37° C. and 5% CO2 • 6. At the end of the incubation period, spin plates at 300×g for 3 mins and remove supernatant • 7. Then add 50 μl of resazurin (Sigma #R7017) (FAC 100 μM resazurin in RPMI medium without FBS) and incubate plates for a further 1-2 hrs at 37° C. and 5% CO2 • 8. Plates were read in an Envision reader at Ex 560 nm and Em 590 nm • 9. IC50 data is fitted to a non-linear regression equation (log inhibitor vs response-variable slope 4-parameters) 96-Well Plate Map
For orientation: Alamar Blue is a resazurin reagent that responds to reducing activity.

Experiment [2] has as its target T1, NLRP3. In words: Human whole blood IL1β release assay. Further details: Plate out 80 μl of whole blood containing 1 μg/ml of LPS; from tissue; host or cells: human whole blood from healthy donors, LPS-primed, nigericin-stimulated. The note with it: LPS 1 μg/ml, nigericin 10 μM, IL-1β AlphaLisa, read-out: HWB IC50. It is filed as cell-based. As for the experimental part:
For systemic delivery, the ability to inhibit NLRP3 when the compounds are present within the bloodstream is of great importance. For this reason, the NLRP3 inhibitory activity of a number of compounds in human whole blood was investigated in accordance with the following protocol.
Human whole blood in Li-heparin tubes was obtained from healthy donors from a volunteer donor panel. • 1. Plate out 80 μl of whole blood containing 1 μg/ml of LPS in 96-well, clear bottom cell culture plate (Corning #3585) • 2. Add […] compound (8 points half-log dilution with 10 μM top dose) or vehicle (DMSO 0.1% FAC) to the appropriate wells • 3. Incubate for 3 hrs at 37° C., 5% CO2 • 4. Add 10 μl Nigericin (Sigma #N7143) (10 μM FAC) to all wells • 5. Incubate for 1 hr at 37° C., 5 CO2 • 6. At the end of the incubation period, spin plates at 300×g for 5 mins to pellet cells and remove 20 μl of supernatant and add to 96-well v-bottom plates for […] analysis (note: these plates containing the supernatants can be stored at −80° C. to be analysed at a later date) • 7. IL-1β was measured according to the manufacturer protocol (Perkin Elmer-AlphaLisa IL-1 Kit AL220F-5000) • 8. IC50 data is fitted to anon-linear regression equation (log inhibitor vs response-variable slope 4-parameters)
(In Alpha technology, singlet oxygen from a donor bead excites a nearby acceptor bead.)

T1 sequence (Q96P20 whole entry): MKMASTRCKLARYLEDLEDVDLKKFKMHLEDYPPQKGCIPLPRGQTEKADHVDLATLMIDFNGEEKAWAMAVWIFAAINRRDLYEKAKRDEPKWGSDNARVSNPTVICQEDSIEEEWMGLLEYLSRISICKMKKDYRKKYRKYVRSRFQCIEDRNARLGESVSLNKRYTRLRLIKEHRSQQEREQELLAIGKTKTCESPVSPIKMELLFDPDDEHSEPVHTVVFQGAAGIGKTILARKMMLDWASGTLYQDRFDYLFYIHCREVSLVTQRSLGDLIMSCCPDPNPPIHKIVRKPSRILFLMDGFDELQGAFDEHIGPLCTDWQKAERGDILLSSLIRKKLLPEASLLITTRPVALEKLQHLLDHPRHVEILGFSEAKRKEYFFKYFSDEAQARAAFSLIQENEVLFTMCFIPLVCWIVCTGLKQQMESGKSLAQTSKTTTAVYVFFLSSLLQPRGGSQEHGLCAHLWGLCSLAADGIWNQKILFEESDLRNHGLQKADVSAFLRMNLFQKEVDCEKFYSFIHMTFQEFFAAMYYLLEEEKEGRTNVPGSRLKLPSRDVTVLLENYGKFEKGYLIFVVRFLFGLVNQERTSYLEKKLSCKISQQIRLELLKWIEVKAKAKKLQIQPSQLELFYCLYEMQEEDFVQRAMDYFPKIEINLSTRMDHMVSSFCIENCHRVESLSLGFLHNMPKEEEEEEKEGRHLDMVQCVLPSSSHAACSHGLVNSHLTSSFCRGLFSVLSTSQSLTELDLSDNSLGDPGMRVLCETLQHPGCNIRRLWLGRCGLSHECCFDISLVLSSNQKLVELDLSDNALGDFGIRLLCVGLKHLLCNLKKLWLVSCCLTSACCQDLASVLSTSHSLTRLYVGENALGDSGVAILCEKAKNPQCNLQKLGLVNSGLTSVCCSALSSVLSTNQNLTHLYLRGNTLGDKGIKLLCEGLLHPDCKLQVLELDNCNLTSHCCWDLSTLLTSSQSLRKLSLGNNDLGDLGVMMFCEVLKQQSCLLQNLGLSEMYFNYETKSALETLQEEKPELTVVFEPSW

As a reminder, the IC50 is the concentration at which inhibition is half-maximal. On to `CC(C)c1cc(F)cc(C(C)C)c1NC(=O)NS(=O)(=O)c1ccn(CC(C)(C)O)n1` [Example 18, N-((4-Fluoro-2,6-diisopropylphenyl)carbamoyl)-1-(2-hydroxy-2-methylpropyl)-1H-pyrazole-3-sulfonamide], for which the IC50 at NLRP3 [1] was in the range of 640 to 2560 nM; on NLRP3 [2], 1600 to 3200 nM.

For the compound `CC(C)c1cc(Cl)cc(C(C)C)c1NC(=O)NS(=O)(=O)c1ccn(CC(C)(C)O)n1` [Example 19, N-((4-Chloro-2,6-diisopropylphenyl)carbamoyl)-1-(2-hydroxy-2-methylpropyl)-1H-pyrazole-3-sulfonamide], the IC50 on NLRP3 [1] lay in the range of 640 to 2560 nM; at NLRP3 [2] it was 3200 to 10000 nM.

As for `CC(C)(CO)n1ccc(S(=O)(=O)NC(=O)Nc2c3c(cc4c2CCC4)CCC3)n1` [Example 20, N-((1,2,3,5,6,7-Hexahydro-s-indacen-4-yl)carbamoyl)-1-(1-hydroxy-2-methylpropan-2-yl)-1H-pyrazole-3-sulfonamide], the IC50 is 40 to 160 nM on NLRP3 [1] and 800 to 1600 nM on NLRP3 [2].

Turning to `CC[C@H](O)Cn1ccc(S(=O)(=O)NC(=O)Nc2c3c(cc4c2CCC4)CCC3)n1` [Example 21, (S)—N-((1,2,3,5,6,7-Hexahydro-s-indacen-4-yl)carbamoyl)-1-(2-hydroxybutyl)-1H-pyrazole-3-sulfonamide], the IC50 on NLRP3 [1] is 40 to 160 nM; on NLRP3 [2], 800 to 1600 nM.

In the case of `CC[C@@H](O)Cn1ccc(S(=O)(=O)NC(=O)Nc2c3c(cc4c2CCC4)CCC3)n1` [Example 25, (R)—N-((1,2,3,5,6,7-Hexahydro-s-indacen-4-yl)carbamoyl)-1-(2-hydroxybutyl)-1H-pyrazole-3-sulfonamide], the IC50 on NLRP3 [1] fell in the range of 160 to 640 nM; on NLRP3 [2], 800 to 1600 nM.

In the case of `O=C(Nc1c2c(cc3c1CCC3)CCC2)NS(=O)(=O)c1ccn(CC(O)C(F)(F)F)n1` (stereo not shown) [Example 30, N-((1,2,3,5,6,7-Hexahydro-s-indacen-4-yl)carbamoyl)-1-(3,3,3-trifluoro-2-hydroxypropyl)-1H-pyrazole-3-sulfonamide], the IC50 at NLRP3 [1] is 40 to 160 nM; on NLRP3 [2], 800 to 1600 nM.

In the case of `O=C(Nc1c2c(cc3c1CCC3)CCC2)NS(=O)(=O)c1ccn(C2CCOCC2)n1` [Example 31, N-((1,2,3,5,6,7-Hexahydro-s-indacen-4-yl)carbamoyl)-1-(tetrahydro-2H-pyran-4-yl)-1H-pyrazole-3-sulfonamide], the IC50 on NLRP3 [1] was in the range of 160 to 640 nM; at NLRP3 [2] it was 1600 to 3200 nM.

Regarding `CC(C)c1cc(Cl)cc(C(C)C)c1NC(=O)NS(=O)(=O)c1ccn(C2CCOCC2)n1` [Example 32, N-((4-Chloro-2,6-diisopropylphenyl)carbamoyl)-1-(tetrahydro-2H-pyran-4-yl)-1H-pyrazole-3-sulfonamide], the IC50 at NLRP3 [1] fell in the range of 640 to 2560 nM; at NLRP3 [2], 3200 to 10000 nM.

As to `C[C@@H](O)Cn1ncc(S(=O)(=O)NC(=O)Nc2c3c(cc4c2CCC4)CCC3)n1` [Example 33, (R)—N-((1,2,3,5,6,7-Hexahydro-s-indacen-4-yl)carbamoyl)-2-(2-hydroxypropyl)-2H-1,2,3-triazole-4-sulfonamide], the IC50 was 160 to 640 nM at NLRP3 [1] and 800 to 1600 nM on NLRP3 [2].

On to `O=C(Nc1c2c(cc3c1CCC3)CCC2)NS(=O)(=O)c1ccn(C2CC(O)C2)n1` (stereo not shown) [Example 34, N-((1,2,3,5,6,7-Hexahydro-s-indacen-4-yl)carbamoyl)-1-(3-hydroxycyclobutyl)-1H-pyrazole-3-sulfonamide], for which the IC50 at NLRP3 [1] fell in the range of 160 to 640 nM; on NLRP3 [2] it was 800 to 1600 nM.

Regarding `COC1(c2cc(S(=O)(=O)NC(=O)Nc3c(-c4cccnc4)cc(F)c4c3CCC4)nn2C)COC1` [Example 35, N-((7-Fluoro-5-(pyridin-3-yl)-2,3-dihydro-1H-inden-4-yl)carbamoyl)-5-(3-methoxyoxetan-3-yl)-1-methyl-1H-pyrazole-3-sulfonamide], the results for the half-inhibitory concentration (IC50) at NLRP3 [1] and at NLRP3 [2] were 160 to 640 nM and 800 to 1600 nM, respectively.

Turning to `C[C@@H](O)Cn1cnc(S(=O)(=O)NC(=O)Nc2c3c(cc4c2CCC4)CCC3)n1` [Example 36, (R)—N-((1,2,3,5,6,7-Hexahydro-s-indacen-4-yl)carbamoyl)-1-(2-hydroxypropyl)-1H-1,2,4-triazole-3-sulfonamide], the IC50 is 160 to 640 nM at NLRP3 [1] and 400 to 800 nM on NLRP3 [2].

Take `CC(C)c1cc(F)cc(-c2cccnc2)c1NC(=O)NS(=O)(=O)c1ccn(C[C@@H](C)O)n1` [Example 37, (R)—N-((4-Fluoro-2-isopropyl-6-(pyridin-3-yl)phenyl)carbamoyl)-1-(2-hydroxypropyl)-1H-pyrazole-3-sulfonamide]: the IC50 is 160 to 640 nM on NLRP3 [1] and under 400 nM at NLRP3 [2].

For `COC1(c2cc(S(=O)(=O)NC(=O)Nc3c4c(cc5c3CCC5)CCC4)nn2C(C)(C)C)COC1` [Example 39, 1-(tert-Butyl)-N-((1,2,3,5,6,7-hexahydro-s-indacen-4-yl)carbamoyl)-5-(3-methoxyoxetan-3-yl)-1H-pyrazole-3-sulfonamide], the IC50 on NLRP3 [1] lay within 40 to 160 nM; on NLRP3 [2], 1600 to 3200 nM.

As to `COc1cc(-c2cc(F)cc(C(C)C)c2NC(=O)NS(=O)(=O)c2cc(C3(OC)COC3)n(C)n2)ccn1` [Example 40, N-((4-Fluoro-2-isopropyl-6-(2-methoxypyridin-4-yl)phenyl)carbamoyl)-5-(3-methoxyoxetan-3-yl)-1-methyl-1H-pyrazole-3-sulfonamide], the IC50 at NLRP3 [1] was 160 to 640 nM; on NLRP3 [2] it was under 400 nM.

Turning to `CCOC1(c2cc(S(=O)(=O)NC(=O)Nc3c4c(cc5c3CCC5)CCC4)nn2C)COC1` [Example 41, 5-(3-Ethoxyoxetan-3-yl)-N-((1,2,3,5,6,7-hexahydro-s-indacen-4-yl)carbamoyl)-1-methyl-1H-pyrazole-3-sulfonamide], the values for the IC50 on NLRP3 [1] and at NLRP3 [2] were 40 to 160 nM and 400 to 800 nM, respectively.

Take `CC(C)n1nc(S(=O)(=O)NC(=O)Nc2c3c(cc4c2CCC4)CCC3)cc1C1(O)COC1` [Example 47, N-((1,2,3,5,6,7-Hexahydro-s-indacen-4-yl)carbamoyl)-5-(3-hydroxyoxetan-3-yl)-1-isopropyl-1H-pyrazole-3-sulfonamide]: the IC50 at NLRP3 [1] fell in the range of 40 to 160 nM; at NLRP3 [2], 400 to 800 nM.

For `Cn1nc(S(=O)(=O)NC(=O)Nc2c3c(cc4c2CCC4)CCC3)cc1C1(F)COC1` [Example 49, 5-(3-Fluorooxetan-3-yl)-N-((1,2,3,5,6,7-hexahydro-s-indacen-4-yl)carbamoyl)-1-methyl-1H-pyrazole-3-sulfonamide], the IC50 on NLRP3 [1] was in the range of 160 to 640 nM; at NLRP3 [2] it was 800 to 1600 nM.

As to `Cn1nc(S(=O)(=O)NC(=O)Nc2c3c(cc4c2CCC4)CCC3)cc1CC(C)(C)O` [Example 50, N-((1,2,3,5,6,7-Hexahydro-s-indacen-4-yl)carbamoyl)-5-(2-hydroxy-2-methylpropyl)-1-methyl-1H-pyrazole-3-sulfonamide], the IC50 on NLRP3 [1] was in the range of 40 to 160 nM; at NLRP3 [2], 800 to 1600 nM.

`Cn1nc(S(=O)(=O)NC(=O)Nc2c3c(cc4c2CCC4)CCC3)cc1C1(O)CCOCC1` [Example 55, N-((1,2,3,5,6,7-Hexahydro-s-indacen-4-yl)carbamoyl)-5-(4-hydroxytetrahydro-2H-pyran-4-yl)-1-methyl-1H-pyrazole-3-sulfonamide]: the IC50 is 160 to 640 nM on NLRP3 [1] and 800 to 1600 nM at NLRP3 [2].
